US20250221996A1, “HETEROCYCLIC COMPOUNDS, COMPOSITIONS THEREOF, AND METHODS OF TREATMENT THEREWITH” (BeiGene, Ltd., priority 2022, published 2025)

Test system: pERK1/2(THR202/TYR204) level in AsPC-1 cells
Experiment: pERK assay (HTRF) in AsPC-1 cell line
Assay type: cell-based
Settings: Homo sapiens, ASPC1, 2 h, 2 h compound treatment
Method in brief: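 AsPC-1 (KRAS G12D) cells, 30000/well, seeded overnight, then treated 2 h with a 10-point series at 0 to 10 μM final. Lysate pERK1/2 (Thr202/Tyr204) detected by HTRF after overnight antibody incubation at room temperature; IC50 from percent inhibition versus log concentration.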

Row | Structure (SMILES) | IC50
1 | CC12CC(COc3nc(N4CC5CCC(C4)N5)c4ccc(-c5cc(O)cc6ccccc56)c(F)c4n3)(CO1)C2 [Example 42, 4-(4-(3,8-diazabicyclo[3.2.1]octan-3-yl)-8-fluoro-2-((1-methyl-2-oxabicyclo[2.1.1]hexan-4-yl)methoxy)quinazolin-7-yl)naphthalen-2-ol] | 4340 nM
2 | N#Cc1c(N)sc2c(F)ccc(-c3c(C(F)(F)F)cc4c(N5CC6CCC(C5)N6)nc(OCC5(C(F)F)CCOCC5)nc4c3F)c12 [Example 43, 4-(4-(3,8-diazabicyclo[3.2.1]octan-3-yl)-2-((4-(difluoromethyl)tetrahydro-2H-pyran-4-yl)methoxy)-8-fluoro-6-(trifluoromethyl)quinazolin-7-yl)-2-amino-7-fluorobenzo[h]thiophene-3-carbonitrile] | 479 nM
3 | N#Cc1c(N)sc2c(F)ccc(-c3c(C(F)(F)F)cc4c(N5CC6CCC(C5)N6)nc(OCC5(F)COC5)nc4c3F)c12 [Example 44, 4-(4-(3,8-diazabicyclo[3.2.1]octan-3-yl)-8-fluoro-2-((3-fluorooxetan-3-yl)methoxy)-6-(trifluoromethyl)quinazolin-7-yl)-2-amino-7-fluorobenzo [b]thiophene-3-carbonitrile] | 211 nM
4 | COC1(COc2nc(N3CC4CCC(C3)N4)c3cc(C(F)(F)F)c(-c4ccc(F)c5sc(N)c(C#N)c45)c(F)c3n2)CC1 [Example 45, 4-(4-(3,8-diazabicyclo[3.2.1]octan-3-yl)-8-fluoro-2-((1-methoxycyclopropyl)methoxy)-6-(trifluoromethyl)quinazolin-7-yl)-2-amino-7-fluorobenzo[b] thiophene-3-carbonitrile] | 115 nM
5 | CC1(COc2nc(N3CC4CCC(C3)N4)c3cc(C(F)(F)F)c(-c4ccc(F)c5sc(N)c(C#N)c45)c(F)c3n2)CN(c2ncco2)C1 [Example 46, 4-(4-(3,8-diazabicyclo[3.2.1]octan-3-yl)-8-fluoro-2-((3-methyl-1-(oxazol-2-yl)azetidin-3-yl)methoxy)-6-(trifluoromethyl)quinazolin-7-yl)-2-amino-7-fluorobenzo[b]thiophene-3-carbonitrile] | 222 nM
6 | N#Cc1c(N)sc2c(F)ccc(-c3c(C(F)(F)F)cc4c(N5CC6CCC(C5)N6)nc(OCC56COC(COC7CC7)(C5)C6)nc4c3F)c12 [Example 47, 4-(4-(3,8-diazabicyclo[3.2.1]octan-3-yl)-2-((1-(cyclopropoxymethyl)-2-oxabicyclo[2.1.1]hexan-4-yl)methoxy)-8-fluoro-6-(trifluoromethyl)quinazolin-7-yl)-2-amino-7-fluorobenzo[b]thiophene-3-carbonitrile] | 154 nM
7 | N#Cc1c(N)sc2c(F)ccc(-c3c(C(F)(F)F)cc4c(N5CC6CCC(C5)N6)nc(OCC5(C#N)COC5)nc4c3F)c12 [Example 49, 3-(((7-(2-amino-3-cyano-7-fluorobenzo[b]thiophen-4-yl)-4-(3,8-diazabicyclo[3.2.1]octan-3-yl)-8-fluoro-6-(trifluoromethyl)quinazolin-2-yl)oxy)methyl)oxetane-3-carbonitrile] | 103 nM
8 | N#Cc1c(N)sc2c(F)ccc(-c3c(C(F)(F)F)cc4c(N5CC6CCC(C5)N6)nc(OCC5(CO)CCOCC5)nc4c3F)c12 [Example 50, 4-(4-(3,8-diazabicyclo[3.2.1]octan-3-yl)-8-fluoro-2-((4-(hydroxymethyl)tetrahydro-2H-pyran-4-yl)methoxy)-6-(trifluoromethyl)quinazolin-7-yl)-2-amino-7-fluorobenzo[b]thiophene-3-carbonitrile] | 193 nM
9 | N#CCC1(COc2nc(N3CC4CCC(C3)N4)c3cc(C(F)(F)F)c(-c4ccc(F)c5sc(N)c(C#N)c45)c(F)c3n2)COC1 [Example 51, 4-(4-(3,8-diazabicyclo[3.2.1]octan-3-yl)-2-((3-(cyanomethyl)oxetan-3-yl)methoxy)-8-fluoro-6-(trifluoromethyl)quinazolin-7-yl)-2-amino-7-fluoro benzo[b]thiophene-3-carbonitrile] | 142 nM
10 | CCc1cc2c(N3CC4CCC(C3)N4)nc(OCC34COC(C)(C3)C4)nc2c(F)c1-c1ccc(F)c2sc(N)c(C#N)c12 [Example 52, 4-(4-(3,8-diazabicyclo[3.2.1]octan-3-yl)-6-ethyl-8-fluoro-2-((1-methyl-2-oxabicyclo[2.1.1]hexan-4-yl)methoxy)quinazolin-7-yl)-2-amino-7-fluorobenzo[b]thiophene-3-carbonitrile] | 235 nM
11 | N#Cc1c(N)sc2c(F)ccc(-c3c(C(F)(F)F)cc4c(N5CC6CCC(C5)N6)nc(OCC5(CF)COC5)nc4c3F)c12 [Example 53, 4-(4-(3,8-diazabicyclo[3.2.1]octan-3-yl)-8-fluoro-2-((3-(fluoromethyl)oxetan-3-yl)methoxy)-6-(trifluoromethyl)quinazolin-7-yl)-2-amino-7-fluoro benzo[b]thiophene-3-carbonitrile] | 33 nM
12 | Cn1ccnc1N1CC(C)(COc2nc(N3CC4CCC(C3)N4)c3cc(C(F)(F)F)c(-c4ccc(F)c5sc(N)c(C#N)c45)c(F)c3n2)C1 [Example 54, 4-(4-(3,8-diazabicyclo[3.2.1]octan-3-yl)-8-fluoro-2-((3-methyl-1-(1-methyl-1H-imidazol-2-yl)azetidin-3-yl)methoxy)-6-(trifluoromethyl)quinazolin-7-yl)-2-amino-7-fluorobenzo[b]thiophene-3-carbonitrile] | 32 nM
13 | CC1(COc2nc(N3CC4CCC(C3)N4)c3cc(C(F)(F)F)c(-c4ccc(F)c5sc(N)c(C#N)c45)c(F)c3n2)CC2(COC2)C1 [Example 55, 4-(4-(3,8-diazabicyclo[3.2.1]octan-3-yl)-8-fluoro-2-((6-methyl-2-oxaspiro[3.3]heptan-6-yl)methoxy)-6-(trifluoromethyl)quinazolin-7-yl)-2-amino-7-fluorobenzo[b]thiophene-3-carbonitrile] | 332 nM
14 | COCC12CC(COc3nc(N4CC5CCC(C4)N5)c4cc(C(F)(F)F)c(-c5ccc(F)c6sc(N)c(C#N)c56)c(F)c4n3)(C1)C(C)(C)O2 [Example 56, 4-(4-(3,8-diazabicyclo[3.2.1]octan-3-yl)-8-fluoro-2-((1-(methoxymethyl)-3,3-dimethyl-2-oxabicyclo[2.1.1]hexan-4-yl)methoxy)-6-(trifluoromethyl)quinazolin-7-yl)-2-amino-7-fluorobenzo[b]thiophene-3-carbonitrile] | 109 nM
15 | N#Cc1c(N)sc2c(F)ccc(-c3c(C(F)(F)F)cc4c(N5CC6CCC(C5)N6)nc(OCC5(CO)COC5)nc4c3F)c12 [Example 57, 4-(4-(3,8-diazabicyclo[3.2.1]octan-3-yl)-8-fluoro-2-((3-(hydroxymethyl)oxetan-3-yl)methoxy)-6-(trifluoromethyl)quinazolin-7-yl)-2-amino-7-fluorobenzo[b]thiophene-3-carbonitrile] | 294 nM
